Reference: patent US20240041823A1, “USE OF MYCOLACTONE (MLN) AND DERIVATIVES THEREOF FOR TREATMENT OF MICROBIAL INFECTIONS” (priority 2022, published 2024)

Test system: SARS-CoV-2 variants of concern (VOC)
Format: cell-based
Settings: plaque assay

In the case of mycolactone [MLN], the “IC50 fold lower than Remdesivir” value is reported as 9-18 fold.
